Test results taken from US20220233605A1, “METHODS OF MAKING AND USING LIVER CELLS” (University Health Network, priority 2019, published 2022).
Entries after “also recorded” stand apart in the source; their conditions may differ.

B1: N: Noggin, inhibition of the BMP pathway (protein, UniProt Q13253 28-232, looked up)
Noggin: QHYLHIRPAPSDNLPLVDLIEHPDPIFDPKEKDLNETLLRSLLGGHYDPGFMATSPPEDRPGGGGGAAGGAEDLAELDQLLRQRPSGAMPSEIKGLEFSEGLAQGKKQRLSKKLRRKLQMWLWSQTFCPVLYAWNDLGSRFWPRYVKVGSCFSKRSCSVPEGMVCKPSKSVHLTVLRWRCQRRGGQRCGWIPIQYPIISECKCSC

Tests used:
Assay type in all cases: cell-based, human
CFTR expression = experiment: Induction of CFTR expression in hepatoblasts differentiated to cholangiocytes in monolayer (co-culture with OP9-Jag1); settings: hepatoblasts co-cultured with OP9-Jag1, monolayer, 6 days
Experimental: OP9 cells were maintained as described previously. 30 Gray irradiated OP9 cells were plated on 2.5% Matrigel coated wells (12 well plates) at a concentration of 200,000 cells per well in alpha-modified minimum essential media (a-MEM) supplemented with glutamine (2 mM) and 20% fetal bovine serum. To induce the cholangiocytes differentiation, day 27 hepatoblasts were dissociated using collagenase type I enzyme and then plated onto the irradiated OP9 cells. The plated cells were cultured in H21 DMEM/Ham's F12 (3:1) media supplemented with 0.1% BSA, 1% vol/vol B27 supplement, ascorbic acid, glutamine, MTG, HGF (20 ng/ml), and epidermal growth factor (EGF, 50 ng/ml) for 4 days. […] To promote the maturation of cholangiocytes that express primary cilia and 4D9, the cells were cultured with DMEM/F12 medium with 0.1% BSA, 1% vol/vol B27 supplement, ascorbic acid, glutamine, MTG, Noggin (50 ng/ml), ROCK inhibitor Y-27632 (5 μM) and Forskolin (FSK, 5 μM) for 12 days. The medium for all steps of cholangiocytes differentiation were changed every two days. The cells were maintained in an ambient O2 incubator.
It has previously been reported that it is possible to generate cholangiocytes that express a number of markers that are indicative of mature cells including the cystic fibrosis transmembrane conductance regulator (CFTR) gene, in which mutations cause cystic fibrosis. The development of mature cholangiocytes was dependent on growth of the cells as cysts in 3D semi-solid cultures consisting of Matrigel and collagen. While this approach yielded relatively mature cholangiocytes, the culture system was not amenable to cell expansion or high throughput screening (e.g., for drugs against cystic fibrosis and other biliary diseases). To improve the differentiation efficiency in monolayer cultures, a panel of cytokines and small molecules that are known to play a role in bile duct development were screened to identify those that would promote the upregulation of CFTR expression as an indication of maturation. Since Notch signaling is required for the production of cholangiocytes, hepatoblasts were cultured on either OP9-Jagl cells or Matrigel for 6 days as previously described. […] To further investigate the role of RA signaling, the effects of specific RA receptor agonists as well as a pan antagonist also were tested.

hPSC-derived hepatocytes [1] = experiment: Zonation of hPSC-derived hepatocytes by Wnt manipulation (gene expression); settings: added days 38 to 56 with T3
Experimental: Day 27 hepatoblasts were cultured in DMEM/F12 (50:50) with 0.2% BSA, 1% vol/vol ITS-X, ascorbic acid, glutamine, MTG, Dex (40 ng/ml), and OSM (5 ng/ml) for 6 days in monolayer. Day 33 hepatoblasts were dissociated using collagenase type 1 enzyme to make a small cluster of hepatoblasts. The dissociated small clusters were maintained in a low cluster culture dish and cultured in DMEM/F12 (50:50) medium supplemented with 0.2% BSA, 1% vol/vol ITS-X, ascorbic acid, 1% vol/vol chemically defined lipid mix medium (Thermo Fisher Scientific), 0.5% vol/vol B27, glutamine, MTG, Dex (40 ng/ml), and CHIR99021 (1 μM) for 6 days to promote the maturation in 3D aggregates. […]

hPSC-derived hepatocytes [2] = experiment: Maturation of hPSC-derived hepatocytes: AFP expression by flow cytometry and qRT-PCR; settings: added days 38 to 56, aggregates, 40 ng/ml dexamethasone
Experimental: For these studies, T3 was added to the cultures during the maturation step, from days 38 to 56. During this stage, the cells are cultured as aggregate in the presence of 40 ng/ml dexamethasone, as previously described.

[3] = tested on: hPSC-derived cholangiocytes; experiment: Flow cytometric screen for DHC5-4D9 reactive mature cholangiocytes in monolayer; settings: added to cultures for 6 days, flow cytometry
Experimental: 30 Gray irradiated OP9 cells were plated on 2.5% Matrigel coated wells (12 well plates) at a concentration of 200,000 cells per well in alpha-modified minimum essential media (a-MEM) supplemented with glutamine (2 mM) and 20% fetal bovine serum. To induce the cholangiocytes differentiation, day 27 hepatoblasts were dissociated using collagenase type I enzyme and then plated onto the irradiated OP9 cells. The plated cells were cultured in H21 DMEM/Ham's F12 (3:1) media supplemented with 0.1% BSA, 1% vol/vol B27 supplement, ascorbic acid, glutamine, MTG, HGF (20 ng/ml), and epidermal growth factor (EGF, 50 ng/ml) for 4 days. […] To promote the maturation of cholangiocytes that express primary cilia and 4D9, the cells were cultured with DMEM/F12 medium with 0.1% BSA, 1% vol/vol B27 supplement, ascorbic acid, glutamine, MTG, Noggin (50 ng/ml), ROCK inhibitor Y-27632 (5 μM) and Forskolin (FSK, 5 μM) for 12 days. […]
To identify pathways that promote further maturation of the hPSC-derived cholangiocytes, a screening approach was used based on flow cytometric identification of cells that express the epitope recognized by the antibody DHCS-4D9, which stains mature bile ductal cells (cholangiocytes) in the adult liver. […] Following this maturation step, the cells were harvested and analyzed by flow cytometry for reactivity with DHC5-4D9.

Row | Molecule | CFTR expression (CFTR expression) | further results
1 | CCCCCCCCc1ccc(-c2ccc(C(=O)O)cc2)cc1 [AC55649] | induced CFTR expression | –
2 | CC1(C)CC=C(C#Cc2ccccc2)c2cc(/C=C/c3ccc(C(=O)O)cc3)ccc21 [BMS493] | inhibited the induction of CFTR expression | –
3 | O=C(O)c1ccc2cc(-c3ccc(O)c(C45CC6CC(CC(C6)C4)C5)c3)ccc2c1 [CD437] | induced CFTR expression | –
4 | Cc1c[nH]c(-c2cnc(NCCNc3ccc(C#N)cn3)nc2-c2ccc(Cl)cc2Cl)n1 [CHIR, 6-[[2-[[4-(2,4-Dichlorophenyl)-5-(5-methyl-1H-imidazol-2-yl)-2-pyrimidinyl]amino]ethyl]amino]-3-pyridinecarbonitrile] | – | zonal gene expression of hepatocytes (hPSC-derived hepatocytes [1]): expressed genes associated with Zone 3 hepatocytes
5 | N[C@@H](Cc1cc(I)c(Oc2ccc(O)c(I)c2)c(I)c1)C(=O)O [T3, Triiodothyronine] | – | levels of AFP expression (hPSC-derived hepatocytes [2]): dramatic decrease in the levels of AFP expression; also recorded: significantly lower than the levels observed in cells treated with cAMP
6 | Oc1nc(-c2ccc(C(F)(F)F)cc2)nc2c1CSCC2 [XAV] | – | zonal gene expression of hepatocytes (hPSC-derived hepatocytes [1]): expressed genes associated with Zone 1 hepatocytes
7 | AM580 | induced CFTR expression | –
8 | B1 | – | development of DHC5-4D9 cells [3]: promoted the development of DHC5-4D9 cells
